Data taken from patent publication US9932339B2, “Helquats with heteroaromatic substituents, preparation thereof, and use thereof as G-quadruplex stabilizers” (USTAV ORGANICKE CHEMIE A BIOCHEMIE AV CR, V.V.I., priority 2014, dated 2018).

Tests used:
[1] = system: c-myc protein; test: Immunodetection of protein c-myc in HGC-27 cell lysates (Western blot); assay type: cell-based, human; details: 50 μmol · l^−1, 24 hour incubation, normalized to β-actin
Experimental: Determination of changes in c-myc protein expression (transcription factor) in cell lysates prepared from tumor cell line HGC-27 after treatment with test helquats (Tab. 7) was carried out by immunodetection after separation of proteins according to their size by gel electrophoresis (SDS-PAGE) and blotting.
To determine the influence helquats on expression of c-myc protein, the cells were cultured under standard conditions and in the exponential growth phase were seeded into flasks at a density of 25,000 cells/cm^2. The next day selected helquats were added at a concentration of 50 μmol·l^−1. After 24 hour incubation, the cell pellets were obtained and, after addition of RIPA buffer with protease inhibitors (PrIC) and phosphatases (PhIC) (for composition see Tab. 8) cell lysates were prepared. 150 μl of RIPA buffer was used for 10^7 cells. Protein concentrations in the lysates were measured by BCA method. Separation of proteins in the lysates was carried out on a 12% denaturing polyacrylamide gel. The separated proteins were transferred to PVDF membrane by Western blotting.
Incubation with primary mouse monoclonal antibody against the protein c-myc (dilution 1:1000 in “SignalBoost” reagent) was carried out overnight at 4° C., and then with the primary mouse anti-β-actin (1:5000 dilution in 5% milk in TBS-T buffer) at room temperature for 2 hours. Subsequently, the secondary horse monoclonal antibody conjugated to horseradish peroxidase (diluted 1:2000 in 5% milk in TBS-T buffer) binding to mouse IgG antibody was applied. C-myc proteins and β-actin bound to the membrane were visualized using detection kit (SuperSignal® West Femto Maximum Sensitivity Substrate, Cat. No. 34095, Thermo Fisher Scientific, Inc., USA) in the chemiluminescence detection system ImageQuant LAS 4000 Mini (Cat. No. 28-9558-13, GE Healthcare Life Sciences, USA). The amount of protein was quantified by densitometry in Quantity One software. The amount of c-myc in the samples was normalized to β-actin, and subsequently related to a control sample.

[2] = system: G-quadruplex oligonucleotide F21T (human telomere); test: FRET melting of G-quadruplex oligonucleotide F21T with ligands; assay type: binding; details: for ΔTm (° C.) F21T/ds26: helquat 1 μmol·l^−1, oligonucleotide 0.2 μmol·l^−1, 50-fold excess of double-stranded competitor ds26; for ΔTm (° C.) F21T: helquat 1 μmol·l^−1, oligonucleotide 0.2 μmol·l^−1, without competitor
Text: (§1) To determine the degree of in vitro interactions of helquats with G-quadruplex(es), the oligonucleotides containing the guanine-rich sequences of human telomere (F21T) and NHE III1 promoter region of c-myc oncogene (Fmyc27T) were used. Both oligonucleotides capable of forming an intramolecular G-quadruplex were end-labeled with suitable fluorophores so as to form donor-acceptor FRET pair (5′-FAM and 3′-TAMRA). If the oligonucleotide is folded into the structure of the G-quadruplex, donor is in close proximity of acceptor and radiationless energy transfer to the acceptor occurs. With increasing temperature of the reaction mixture G-quadruplex structure gradually denatures and thus the donor and acceptor (FAM-TAMRA) drift apart. This leads to an increase in fluorescence of donor (FAM) and a decrease in fluorescence of acceptor (TAMRA).
(§2) The result of measurement is the curve of dependence of the intensity of fluorescence of the donor on the temperature. If the G-quadruplex is stabilized by ligand, melting temperature will increase. Melting temperature of G-quadruplex corresponds to the temperature when 50% of the original amount of the folded G-quadruplex is denatured. The measurement outcome is the difference in the melting temperatures (ΔTm) of the G-quadruplex alone and the G-quadruplex stabilized by ligand. In case of Fmyc27T experiments were performed in cacodylate buffer (10 mmol·l^−1, pH=7.2) with KCl (5 mmol·l^−1) and LiCl (95 mmol·l^−1) oligonucleotide and in case of F21T oligonucleotide in cacodylate buffer (10 mmol·l^−1, pH=7.2) with KCl (25 mmol·l^−1) and LiCl (75 mmol·l^−1).
(§3) Both oligonucleotides were denatured for 5 minutes at 95° C. and subsequently allowed to cool to room temperature (3 hours) in the switched-off thermoblock. The final oligonucleotide concentration in the reaction mixture was 0.2 μmol·l^−1. Test helquats were present at concentrations of 1 μmol·l^−1. The total reaction volume was 30 μl. The melting temperature of the oligonucleotides alone (without the presence of helquats) under these conditions was 58.1±0.2° C. for F21T and 64.7±0.4° C. for Fmyc27T. For determining the selectivity of binding of helquats to G-quadruplex in comparison with the double-stranded DNA, 50-fold excess of double-stranded DNA ([…] unlabeled competitor ds26 forming a hairpin) is added to the reaction mixture. After the addition to the reaction mixture ds26 competes with labeled oligonucleotide (Fmyc27T or F21T) for ligand binding. […] Melting temperature of oligonucleotides alone in the presence of the competitor is 59.4±0.5° C. for F21T and 66.3° C.±0.6° C. for Fmyc27T.
(§4) Fluorescence of FAM donor was measured using real-time PCR apparatus Opticon 2 (excitation 470-505 nm and emission 523-543 nm) in temperature increments of 0.5° C. in the range 25 to 95° C. Evaluation of the sigmoid curves of fluorescence intensity dependent on the temperature were performed in GraphPad Prism 5 (GraphPad Software, Inc., USA). Using nonlinear five parametric regression the inflection point on the curve was calculated that corresponds to the melting temperature (Tm) of the G-quadruplex under the given conditions. The values were obtained from at least three independent measurements.

[3] = system: G-quadruplex oligonucleotide Fmyc27T (NHE III1 promoter region of c-myc oncogene); test: FRET melting of G-quadruplex oligonucleotide Fmyc27T with ligands; assay type: binding; details: for ΔTm (° C.) Fmyc27T/ds26 (° C.): helquat 1 μmol·l^−1, oligonucleotide 0.2 μmol·l^−1, 50-fold excess of double-stranded competitor ds26; for ΔTm (° C.) Fmyc27T: helquat 1 μmol·l^−1, oligonucleotide 0.2 μmol·l^−1, without competitor
Text: as §1, §2, §3, §4

[4] = system: G-quadruplex in promoter region of the c-myc gene (NHE III1 segment); test: Dual luciferase analysis with plasmid pGL4.10-myc (luc2) in HGC-27 cells; assay type: cell-based, human; details: Homo sapiens; for inhibition at 50 µM: HGC-27, text summary of tab. 5 (50 μmol·l^−1), read-out: inhibition of expression of firefly luciferase as compared to control; for activity at 50 µM: helquat 50 μmol · l^−1, HGC-27, firefly normalized to Renilla, 24 hours after transfection, read-out: luciferase expression relative to control (control = 100%)
Outline: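 HGC-27 cells were co-transfected 1:1 with pGL4.10-myc (luc2), whose firefly luciferase is driven by an 860 bp c-myc regulatory region containing the G-quadruplex-forming NHE III1 segment, and pRL-TK Renilla control, using X-tremeGENE HP DNA in OptiMEM. Compounds were added two hours post-transfection; luminescence read 24 hours after transfection was Renilla-normalized and expressed relative to control.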

How did the “c-myc protein expression relative to control (control = 100%)” value [1] turn out when `C(=C\c1cc(/C=C/c2ccsc2)[n+]2c(c1)-c1c(ccc3c1-c1cc(/C=C/c4ccsc4)cc(/C=C/c4ccsc4)[n+]1CCC3)CCC2)/c1ccsc1` (racemic) [PRC-C5-9, (rac)-2,4,13,15-tetrakis((E)-2-(thiophen-3-yl)vinyl)-6,7,8,11,12,13-hexahydro-dipyrido[1,2-a;1′,2′-a′]benzo[2,1-c:3,4-c′]bisazepindiium trifluoromethanesulfonate] was run?
The value was 34%.

Which “c-myc protein expression relative to control (control = 100%)” value [1] does the source give for `Cc1c(C)c2c(c3c1CC[n+]1ccc(/C=C/c4cccc5c4oc4ccccc45)cc1-3)-c1cc(/C=C/c3cccc4c3oc3ccccc34)cc[n+]1CC2.O=S(=O)([O-])C(F)(F)F.O=S(=O)([O-])C(F)(F)F` [PDB-C13-8, 2,15-bis((E)-2-(dibenzo [b,d]furan-4-yl)vinyl)-8,9-dimethyl-6,7,10,11-tetrahydrodipyrido[2,1-a:1′,2′-k][2,9]phenanthroline-5,12-diium trifluoromethanesulfonate] here?
The value was 83%.

How did the “c-myc protein expression relative to control (control = 100%)” value [1] turn out when `C(=C\c1ccc(-c2cccs2)s1)/c1cc[n+]2c(c1)-c1c(ccc3c1-c1cccc[n+]1CC3)CC2.O=S(=O)([O-])C(F)(F)F.O=S(=O)([O-])C(F)(F)F` [LSA-C9-16, (E)-2-(2-([2,2′-bithiophen]-5-yl)vinyl)-6,7,10,11-tetrahydrodipyrido[2,1-a:1′,2′-k][2,9]phenanthroline-5,12-diium trifluoromethanesulfonate] was run?
The value was 28%.

How did the “c-myc protein expression relative to control (control = 100%)” value [1] turn out when `C(=C\c1cc2ccccc2[nH]1)/c1cc(/C=C/c2cc3ccccc3[nH]2)[n+]2c(c1)-c1c(ccc3c1-c1cccc[n+]1CC3)CC2.O=S(=O)([O-])C(F)(F)F.O=S(=O)([O-])C(F)(F)F` [HTA-C10-10, 2,4-bis((E)-2-(1H-indol-2-yl)vinyl)-6,7,10,11-tetrahydrodipyrido[2,1-a:1′,2′-k][2,9]phenanthroline-5,12-diium trifluoromethanesulfonate] was run?
Its value is 75%.

For “2,4,15,17-tetra((E)-(2-(1-methyl-1H-indol-2-yl)vinyl)-6,7,8,11,12,13-hexahydrodipyrido[1,2-a:1′,2′-a′]benzo[2,1-c:3,4-c′]bisazepindiium trifluoromethanesulfonate [PRC-C10-10]”, which “c-myc protein expression relative to control (control = 100%)” value [1] is on record?
The value was 71%.

How did the “ΔTm (° C.) F21T/ds26” value [2] turn out when `COc1ccc(/C=C/c2cc[n+]3c(c2)-c2c(ccc4c2-c2cc(/C=C/c5ccc(OC)nc5OC)cc[n+]2CC4)CC3)c(OC)n1` [PDA-C8-27, 2,15-bis((E)-2-(2,6-dimethoxypyridin-3-yl)vinyl)-6,7,10,11-tetrahydrodipyrido[2,1-a:1′,2′-k][2,9]phenanthroline-5,12-diium trifluoromethanesulfonate] was run?
The value was 7.0 °C.

And the “ΔTm (° C.) F21T” value [2]?
Its value is 9.3 °C.

What about the “ΔTm (° C.) Fmyc27T/ds26 (° C.)” value [3] of the same compound?
The value was 9.6 °C.

And the “ΔTm (° C.) Fmyc27T” value [3]?
The value was 11.8 °C.

And the inhibition at 50 µM [4]?
Its inhibition at 50 µM is > 20%.

And the activity at 50 µM [4]?
The activity at 50 µM was 77%.

How did the “ΔTm (° C.) F21T/ds26” value [2] turn out when `COc1ccc(/C=C/c2cc[n+]3c(c2)-c2c(c(C)c(C)c4c2-c2cccc(/C=C/c5ccc(OC)nc5OC)[n+]2CC4)CC3)c(OC)n1.O=S(=O)([O-])C(F)(F)F.O=S(=O)([O-])C(F)(F)F` [MJB-C8-27, 2,13-bis((E)-2-(2,6-dimethoxypyridin-3-yl)vinyl)-8,9-dimethyl-6,7,10,11-tetrahydrodipyrido[2,1-a:1′,2′-k][2,9]phenanthroline-5,12-diium trifluoromethanesulfonate] was run?
Its value is 5.2 °C.

What about the “ΔTm (° C.) F21T” value [2] of the same compound?
Its value is 8.0 °C.

What about the “ΔTm (° C.) Fmyc27T/ds26 (° C.)” value [3] of the same compound?
The value was 10.0 °C.

And the “ΔTm (° C.) Fmyc27T” value [3]?
The value was 9.7 °C.

And the inhibition at 50 µM [4]?
The inhibition at 50 µM was > 10%.

And the activity at 50 µM [4]?
The activity at 50 µM was 88%.

For `Cc1nc[nH]c1/C=C/c1cc[n+]2c(c1)-c1c(c(C)c(C)c3c1-c1cccc(/C=C/c4[nH]cnc4C)[n+]1CC3)CC2.O=S(=O)([O-])C(F)(F)F.O=S(=O)([O-])C(F)(F)F` [MJB-C5-11, 8,9-dimethyl-2,13-bis((E)-2-(4-methyl-1H-imidazol-5-yl)vinyl)-6,7,10,11-tetrahydrodipyrido[2,1-a:1′,2′-k][2,9]phenanthroline-5,12-diium trifluoromethanesulfonate], which “c-myc protein expression relative to control (control = 100%)” value [1] is on record?
The value was 23%.

What does the source list for `Cn1cc(/C=C/c2cc[n+]3c(c2)-c2c(ccc4c2-c2cc(/C=C/c5cn(C)c6ccccc56)cc[n+]2CC4)CC3)c2ccccc21` [PDA-C10-13, 2,15-bis((E)-2-(1-methyl-1H-indol-3-yl)vinyl)-6,7,10,11-tetrahydrodipyrido[2,1-a:1′,2′-k][2,9]phenanthroline-5,12-diium trifluoromethanesulfonate]?
ΔTm (° C.) F21T/ds26 [2]: 9.1 °C; ΔTm (° C.) F21T [2]: 9.7 °C; ΔTm (° C.) Fmyc27T/ds26 (° C.) [3]: 13.6 °C; ΔTm (° C.) Fmyc27T [3]: 13.8 °C

For `Cc1nc[nH]c1/C=C/c1cc[n+]2c(c1)-c1c(ccc3c1-c1cc(/C=C/c4[nH]cnc4C)cc[n+]1CC3)CC2.O=S(=O)([O-])C(F)(F)F.O=S(=O)([O-])C(F)(F)F` [PDA-C5-11, 2,15-bis((E)-2-(4-methyl-1H-imidazol-5-yl)vinyl)-6,7,10,11-tetrahydrodipyrido[2,1-a:1′,2′-k][2,9]phenanthroline-5,12-diium trifluoromethanesulfonate], which “c-myc protein expression relative to control (control = 100%)” value [1] is on record?
Its value is 80%.

Which “ΔTm (° C.) F21T/ds26” value [2] does the source give for `Brc1ccc2[nH]cc(/C=C/c3cc[n+]4c(c3)-c3c(ccc5c3-c3cc(/C=C/c6c[nH]c7ccc(Br)cc67)cc[n+]3CC5)CC4)c2c1.O=S(=O)([O-])C(F)(F)F.O=S(=O)([O-])C(F)(F)F` [PDA-C9-30, 2,15-bis((E)-2-(5-bromo-1H-indol-3-yl)vinyl)-6,7,10,11-tetrahydrodipyrido[2,1-a:1′,2′-k][2,9]phenanthroline-5,12-diium trifluoromethanesulfonate] here?
Its value is 13.1 °C.

And the “ΔTm (° C.) F21T” value [2]?
The value was 12.3 °C.

And the “ΔTm (° C.) Fmyc27T/ds26 (° C.)” value [3]?
Its value is 16.0 °C.

What about the “ΔTm (° C.) Fmyc27T” value [3] of the same compound?
Its value is 14.6 °C.
